{
  "source": "paper PMC11084299",
  "about": "(International Journal of Molecular Sciences, 2024)",
  "molecules": {"B1": {"name": "Plasmodium falciparum tyrosyl-tRNA synthetase (enzyme, UniProt Q8IAR7 1-373, looked up)", "chain": "METTDTKREEQEIEEKKAQEESKIEDVDKILNDILSISSECIQPDELRVKLLLKRKLICYDGFEPSGRMHIAQGLLKSIIVNKLTSNGCTFIFWIADWFAHLNNKMSGDLKKIKKVGSYFIEVWKSCGMNMENVQFLWASEEINKKPNEYWSLVLDISRSFNINRMKRCLKIMGRSEGEENYCSQILYPCMQCADIFFLNVDICQLGIDQRKVNMLAREYCDIKKIKKKPVILSHGMLPGLLEGQEKMSKSDENSAIFMDDSESDVNRKIKKAYCPPNVIENNPIYAYAKSIIFPSYNEFNLVRKEKNGGDKTYYTLQELEHDYVNGFIHPLDLKDNVAMYINKLLQPVRDHFQNNIEAKNLLNEIKKYKVTK", "notes": "Tyrosyl-tRNA synthetase of Plasmodium falciparum, gene ID PF3D7-0807900, synthesized gene in pET28a; about 47 kDa on SDS-PAGE; No tag cleavage is described; The same protein was later captured on Ni-NTA biosensors for BLI with okanin, so the His tag was probably still present in the gel filtration; also called PfTyrRS; PfTysRS; source: E. coli BL21, purified (Ni-NTA, HiTrap Q HP, Superdex 200 …)"}, "B2": {"name": "Homo sapiens tyrosyl-tRNA synthetase (enzyme, UniProt P54577 1-528, looked up)", "chain": "MGDAPSPEEKLHLITRNLQEVLGEEKLKEILKERELKIYWGTATTGKPHVAYFVPMSKIADFLKAGCEVTILFADLHAYLDNMKAPWELLELRVSYYENVIKAMLESIGVPLEKLKFIKGTDYQLSKEYTLDVYRLSSVVTQHDSKKAGAEVVKQVEHPLLSGLLYPGLQALDEEYLKVDAQFGGIDQRKIFTFAEKYLPALGYSKRVHLMNPMVPGLTGSKMSSSEEESKIDLLDRKEDVKKKLKKAFCEPGNVENNGVLSFIKHVLFPLKSEFVILRDEKWGGNKTYTAYVDLEKDFAAEVVHPGDLKNSVEVALNKLLDPIREKFNTPALKKLASAAYPDPSKQKPMAKGPAKNSEPEEVIPSRLDIRVGKIITVEKHPDADSLYVEKIDVGEAEPRTVVSGLVQFVPKEELQDRLVVVLCNLKPQKMRGVESQGMLLCASIEGINRQVEPLDPPAGSAPGEHVFVKGYEKGQPDEELKPKKKVFEKLQADFKISEECIAQWKQTNFMTKLGSISCKSLKGGNIS", "notes": "Tyrosyl-tRNA synthetase, human, in pET28a; about 64 kDa on SDS-PAGE; No tag cleavage is described; also called HsTyrRS; HsTysRS; source: E. coli, purified (Ni column, ion exchange Q HP, size exclusion chromatography)"}},
  "key": {"[1]": {"biological_target": "T1, Plasmodium falciparum tyrosyl-tRNA synthetase (PfTyrRS) (Plasmodium falciparum, UniProt Q8IAR7)", "T1 construct": "gene PF3D7_0807900; recombinant PfTyrRS (PF3D7-0807900), C-terminal 10 × His tag, ~47 kDa, homodimer", "experiment": "bio-layer interferometry (Ni-NTA biosensors, immobilized PfTyrRS); supported by ATP hydrolysis inhibition (IC50 […]), TSA and limited proteolysis", "type": "binding"}, "[2]": {"biological_target": "T2, Homo sapiens tyrosyl-tRNA synthetase (HsTyrRS) (Homo sapiens, UniProt P54577)", "T2 construct": "gene YARS1; recombinant HsTyrRS, C-terminal 10 × His tag, ~64 kDa, homodimer", "T2 sequence (P54577 1-528)": "B2 chain", "experiment": "ATP hydrolysis (consumption) assay, luciferin/luciferase luminescence, purified enzyme", "type": "biochemical"}, "[3]": {"biological_target": "the molecule itself", "experiment": "SEC; Superdex 200 Increase 10/300 GL, final purification step; oligomeric state from the apparent molecular weight at the elution volume"}},
  "data": [
    {"molecule": "O=C(/C=C/c1ccc(O)c(O)c1)c1ccc(O)c(O)c1O", "note": "[okanin]", "values": [
      {"measurement": "Kd", "setting": "[1]", "result": 0.29, "unit": "µM"},
      {"measurement": "IC50", "setting": "[2]", "result": "38.2 ± 2.71", "unit": "µM"}
    ]},
    {"molecule": "B1", "values": [
      {"measurement": "stoichiometry N", "setting": "[3]", "result": 2}
    ]},
    {"molecule": "B2", "values": [
      {"measurement": "stoichiometry N", "setting": "[3]", "result": 2}
    ]}
  ]
}
